Data reported in ChEMBL document CHEMBL3244079, “Synthesis and antiarrhythmic activity of 2-dialkylaminoalkyl-9-phenyl-1H-indeno[2,1-c]pyridine derivatives” (J Med Chem, 1978).
Active and inactive are the calls of the source. No cut-off for these calls is given here.

Assays:
Heart = test: Antiarrhythmic activity in rabbit heart assessed as reduction in aconitine-induced ventricular arrhythmia at 40 mg/l after 30 mins by electrocardiographic analysis; format: functional, tissue-based; conditions: Oryctolagus cuniculus
Canis familiaris [1] = test: Antiarrhythmic activity in iv dosed mongrel dog assessed as reduction in ouabain-induced ventricular arrhythmia by electrocardiographic analysis; format: functional; conditions: Canis lupus familiaris, Heart; for minimal effective dose: read-out: MED
Canis familiaris [2] = test: Antiarrhythmic activity in iv dosed mongrel dog assessed as reduction in ouabain-induced ventricular arrhythmia measured as duration of action at MED by electrocardiographic analysis; format: functional, Canis lupus familiaris, Heart
Canis familiaris [3] = organism: Canis familiaris; test: Antiarrhythmic activity in mongrel dog Harris two-stage coronary ligation model assessed as reduction in ectopic beats by electrocardiographic analysis; format: functional; conditions: Canis lupus familiaris, Heart; for minimal effective dose: read-out: MED
Canis familiaris [4] = organism: Canis familiaris; test: Antiarrhythmic activity in mongrel dog Harris two-stage coronary ligation model assessed as reduction in ectopic beats measured as duration of action at MED by electrocardiographic analysis; format: functional, Canis lupus familiaris, Heart
Canis familiaris [5] = organism: Canis familiaris; test: Toxicity in mongrel dog Harris two-stage coronary ligation model; format: organism-based, Canis lupus familiaris; conditions: in vivo

SMILES | Activity (Heart) | Activity (Canis familiaris [1]) | minimal effective dose (Canis familiaris [1]) | Time (Canis familiaris [2]) | Activity (Canis familiaris [3]) | minimal effective dose (Canis familiaris [3]) | Time (Canis familiaris [4]) | Activity (Canis familiaris [5])
CN(C)CCCN1CC[C@H]2c3ccccc3[C@H](c3ccccc3)[C@H]2C1 (relative stereo) | Active | inactive |  |  |  |  |  | 
O=C(c1ccccc1)C1CN(CCCN2CCCCC2)CCC1(O)c1ccccc1 (stereo not drawn) | Active |  | 10 mg/kg | 15 min | inactive |  |  | 
Br.c1ccc([C@@H]2c3ccccc3[C@@H]3CCNC[C@H]23)cc1 (relative stereo) | Active |  | 17.5 mg/kg | 15 min |  | 15 mg/kg | 12.5 min | 
C=C[C@H]1CN2CC[C@H]1C[C@@H]2[C@@H](O)c1ccnc2ccc(OC)cc12 [QUINIDINE] | Active |  | 7.5 mg/kg | >30 min |  | 12.8 mg/kg | 23 min | 
Br.C1=C2C(=C(c3ccccc3)c3ccccc32)CN(Cc2ccccc2)C1 | Active |  | 15 mg/kg | 17 min | inactive |  |  | 
c1ccc([C@H]2c3ccccc3[C@@H]3CCNC[C@H]23)cc1 (relative stereo) | Active | inactive |  |  |  |  |  | 
Br.CN(C)CCCN1CC=C2C(=C(c3ccccc3)c3ccccc32)C1.O | Active |  | 15 mg/kg | 40 min | inactive |  |  | 
Br.CN(C)CCN1CC[C@H]2c3ccccc3[C@H](c3ccccc3)[C@H]2C1 (relative stereo) | Active |  | 20 mg/kg | 17 min | inactive |  |  | 
Br.C1=C2C(=C(c3ccccc3)c3ccccc32)CN(CCCN2CCCCC2)C1.O | Active |  | 10 mg/kg | 35 min |  | 7.5 mg/kg | 12 min | 
Br.CCN(CC)CCN1CC[C@H]2c3ccccc3[C@@H](c3ccccc3)[C@H]2C1.O (relative stereo) | Active |  | 10 mg/kg | 25 min |  | 12.5 mg/kg | 12.5 min | 
CCN(CC)CCN1CC[C@H]2c3ccccc3[C@H](c3ccccc3)[C@H]2C1 (relative stereo) | Active | inactive |  |  |  |  |  | 
Cl.O.c1ccc([C@@H]2c3ccccc3[C@@H]3CCN(CCCN4CCCCC4)C[C@H]23)cc1 (relative stereo) |  |  | 15 mg/kg | 15 min | inactive |  |  | 
CCN(CC)CCCN1CC[C@H]2c3ccccc3[C@@H](c3ccccc3)[C@H]2C1.Cl.O (relative stereo) | Active |  | 20 mg/kg | 15 min |  | 12.5 mg/kg | 10 min | 
CCN(CC)CCCN1CCC(O)(c2ccccc2)C(C(=O)c2ccccc2)C1 (stereo not drawn) |  |  | 12.5 mg/kg | 32 min |  | 7.5 mg/kg | 16 min | 
CN(C)CCCN1CCC(O)(c2ccccc2)C(C(=O)c2ccccc2)C1 (stereo not drawn) | Active | inactive |  |  |  |  |  | 
Cl.O.c1ccc([C@H]2c3ccccc3[C@@H]3CCN(CCCN4CCCCC4)C[C@H]23)cc1 (relative stereo) | Active |  | 10 mg/kg | 30 min |  |  |  | Toxic
CN(C)CCCN1CC[C@H]2c3ccccc3[C@@H](c3ccccc3)[C@H]2C1.Cl.O (relative stereo) | Active |  | 10 mg/kg | 15 min |  | 10 mg/kg | 17.5 min | 
CN(C)CCN1CCC(O)(c2ccccc2)C(C(=O)c2ccccc2)C1 (stereo not drawn) | Active | inactive |  |  |  |  |  | 
CC(C)N(CCC(C(N)=O)(c1ccccc1)c1ccccn1)C(C)C.O=P(O)(O)O (stereo not drawn) [DISOPYRAMIDE PHOSPHATE] |  |  | 6.6 mg/kg | >30 min |  | 7 mg/kg | 23 min | 
Br.CCN(CC)CCCN1CC=C2C(=C(c3ccccc3)c3ccccc32)C1.O | Active |  | 20 mg/kg | 35 min |  | 15 mg/kg | 10 min | 
Br.CCN(CC)CCCN1CC[C@H]2c3ccccc3[C@H](c3ccccc3)[C@H]2C1.O (relative stereo) |  |  | 15 mg/kg | 19 min |  |  |  | 
